Assay in all cases: MIC by agar dilution method
Assay type in all cases: cell-based

In assay [1] the test system is K. pneumoniae DT. The note with it: Klebsiella pneumoniae, 24 h, 10^8 CFU/ml, 37° C. overnight. How it is done:
(§1) The minimal inhibitory concentrations [MIC (μg/ml)] of a representative compound of the invention were determined by the following method.
(§2) Method for MIC determination
(§3) The MIC values of the test compound were determined by the agar dilution method. Thus, 1.0 ml aliquots of serial aqueous dilutions of the test compound were put in petri dishes and 9.0 ml aliquots of Trypticase Soy Agar were added and mixed. Those agar plates were respectively smeared with a suspension (about 10^8 CFU/ml) of the test organism and incubated at 37° C. overnight.

In assay [2] the test system is S. marcescens IFO 12648. The note with it: Serratia marcescens, IFO12648, 24 h, 10^8 CFU/ml, 37° C. overnight. The method, then:
as §1, §2, §3

The subject of assay [3] is C. diphtheriae Tronto. The conditions noted are these: Corynebacterium diphtheriae, 24 h. How it is done: as §1, §2, §3
Assay [4] deals with C. freundii IFO 12681. The conditions noted are these: Citrobacter freundii, IFO12681, 24 h, 10^8 CFU/ml, 37° C. overnight. The method, then:
as §1, §2, §3

For assay [5], the system named is S. pyogenes E-14. The note with it: Streptococcus pyogenes, E14, 24 h, 10^8 CFU/ml, 37° C. overnight. The method, then: as §1, §2, §3
For assay [6], the system named is P. mirabilis IFO 3849. The conditions noted are these: Proteus mirabilis, IFO3849, 24 h, 10^8 CFU/ml, 37° C. overnight. How it is done: as §1, §2, §3
Assay [7] has as its system P. vulgaris IFO 3988. The note with it: Proteus vulgaris, IFO3988, 24 h, 10^8 CFU/ml, 37° C. overnight. How it is done: as §1, §2, §3
The test system of assay [8] is S. aureus FDA 209P. The note with it: Staphylococcus aureus, FDA209P, 24 h, 10^8 CFU/ml, 37° C. overnight. The method, then: as §1, §2, §3
Assay [9] has as its system S. aureus 1840. The conditions noted are these: Staphylococcus aureus, 24 h, 10^8 CFU/ml, 37° C. overnight. How it is done: as §1, §2, §3
For assay [10], the system named is C. freundii TN 474. The note with it: Citrobacter freundii, TN474, 24 h, 10^8 CFU/ml, 37° C. overnight. How it is done: as §1, §2, §3
Assay [11] has as its system K. oxytoca TN 1711. The note with it: Klebsiella oxytoca, TN1711, 24 h, 10^8 CFU/ml, 37° C. overnight. The method, then: as §1, §2, §3
Assay [12] relates to S. aureus 308A-1. The conditions noted are these: Staphylococcus aureus, 308A1, 24 h, 10^8 CFU/ml, 37° C. overnight. How it is done: as §1, §2, §3
In assay [13] the test system is S. pyogenes S-8. The conditions noted are these: Streptococcus pyogenes, S8, 24 h, 10^8 CFU/ml, 37° C. overnight. The method, then:
as §1, §2, §3

Assay [14] has as its system E. coli NIHJ JC-2. The conditions noted are these: Escherichia coli, NIHJJC2, 24 h, 10^8 CFU/ml, 37° C. overnight. The method, then:
as §1, §2, §3

Assay [15] relates to S. mitis America. The conditions noted are these: Streptococcus mitis, 24 h, 10^8 CFU/ml, 37° C. overnight. The method, then:
as §1, §2, §3

Assay [16] has as its system E. cloacae TN 583. The conditions noted are these: Enterobacter cloacae, TN583, 24 h, 10^8 CFU/ml, 37° C. overnight. How it is done:
as §1, §2, §3

Assay [17] concerns E. coli NIHJ O-111. The note with it: Escherichia coli, NIHJO111, 24 h, 10^8 CFU/ml, 37° C. overnight. How it is done:
as §1, §2, §3

The test system of assay [18] is M. morganii IFO 3168. The conditions noted are these: Morganella morganii, IFO3168, 24 h, 10^8 CFU/ml, 37° C. overnight. How it is done:
as §1, §2, §3

Assay [19] relates to E. cloacae IFO 12937. The note with it: Enterobacter cloacae, IFO12937, 24 h, 10^8 CFU/ml, 37° C. overnight. How it is done: as §1, §2, §3
In assay [20] the test system is E. coli NIHJ T-7. The note with it: Escherichia coli, NIHJT7, 24 h, 10^8 CFU/ml, 37° C. overnight. The method, then: as §1, §2, §3
For assay [21], the system named is S. pneumoniae Type I. The conditions noted are these: Streptococcus pneumoniae, 24 h, 10^8 CFU/ml, 37° C. overnight. How it is done: as §1, §2, §3

The source of these data is patent publication US5393751A, “Tricyclic carbapenem compounds” (Takeda Chemical Industries, Ltd., priority 1989, dated 1995).

Take `C[C@@H](O)[C@H]1C(=O)N2C(C(=O)[O-])=C3SCCCC3[C@H]12.[Na+]` (mixture of isomers) [Example 3, Sodium (5S,6S,7RS)-5-[(R)-1-hydroxyethyl]-4-oxo-3-aza-11-thiatricyclo[5.4.0.0^3,6]undec-1-ene-2-carboxylate]: the MIC (in general, the lowest concentration found to suppress growth) in [1] was 0.39 µg/mL; in [2], 1.56 µg/mL; in assay [3], < 0.1 µg/mL; in [4], 0.39 µg/mL; in assay [5] it was 0.78 µg/mL; in assay [6], 1.56 µg/mL. For the same compound, the minimal inhibitory concentration (MIC) in assay [7] was 3.13 µg/mL; in [8] it was 0.78 µg/mL; in assay [9], 1.56 µg/mL; in assay [10], 1.56 µg/mL; in [11] it was 0.39 µg/mL; in assay [12], 0.78 µg/mL. For the same compound, the MIC in assay [13] came out at 0.2 µg/mL; in assay [14], 0.2 µg/mL; in assay [15] it was 0.78 µg/mL; in assay [16], 0.78 µg/mL; in assay [17] it was 0.2 µg/mL; in assay [18] it was 3.13 µg/mL. The figures for the MIC in assay [19], in [20] and in assay [21] were 0.78 µg/mL, 0.2 µg/mL and 0.39 µg/mL, respectively.
